The results in this text go back to US20100069345A1, “Lanthanide-porphyrin complexes as anti-tumor agents” (priority 2005, published 2010).

For one series, the system named is HeLa cells. Nature of the series: Confocal microscopy with AO/EB staining. Format: cell-based, human. The settings on record: complex 1 0.2 μM 20 h, complex 2b 10 μM 16 h. The source says:
Confocal Microscopic Experiment. By examining cell morphology under scanning confocal microscopy, the type of cell death can be distinguished. Early phase of apoptosis is characterized by the formation of apoptotic bodies when the integrity of the cell membrane is maintained without cell lysis. On the other hand, necrosis is characterized by cell lyses with the leaking out of internal cellular components such as DNA. With ethidium bromide (DNA stain) and acridine orange (cell membrane stain) as staining agents, normal, apoptotic and necrotic cells can be distinguished under laser confocal microscopy (Chan et. al., Inorg. Chem. 2002, 41, 3161-3171).

A further series deals with LC3. Nature of the series: Subcellular distribution of GFP-LC3. Format: cell-based, human. The note with it: HeLa transfected with GFP-LC3, 1 μM, 1-4 hours. As to the method:
Subcellular Distribution of LC3. HeLa cells were transiently transfected with a plasmid expressing green fluorescent protein-tagged LC3 (GFP-LC3) using GeneJuice (Novagen, USA). After overnight incubation, HeLa cells were treated 1 (1 μM) for 1, 2, 3, and 4 hours respectively. Green fluorescence of GFP-LC3 was examined under the Olympus IX71 microscope (Melville, N.Y.). Images were captured with CCD digital camera RT COLOR, Spot (Diagnostic Instruments, Inc., Melville, N.Y.).
The redistribution of microtubule-associated protein 1 light chain 3 (LC3) was also examined. LC3 is a maker of autophagosomes in mammalian cells which the localization changes from a diffuse cytosolic pattern to a punctuate pattern representing its recruitment to the autophagosomal membrane during the induction of autophagy. HeLa cells were transfected with plasmid encoded a fusion protein of GFP and LC3 (GFP-LC3), so that the cellular trafficking of LC3 can be directly visualized by live fluorescence microscopy.

The test system of series [1] is multi-drug resistant cell line QGY-TR50. Nature of the series: MTT cell viability assay, QGY-TR50. In kind it is cell-based, human. From the text: (§1) Human cervical epitheloid carcinoma cells (HeLa), human hepatocellular carcinoma cells (HepG2 and Hep3B), human breast cancer cells (MCF-7), human coloadenocarcinoma cells (HCT-8), and normal human lung fibroblast cells (CCD-19Lu) were purchased from American Type Culture Collection (ATCC) Rockville, Md., USA. The human hepatocellular cancinoma cells QGY-7703, and the multi-drug resistant cell line QGY-TR50 derived from QGY-7703, were generously provided by Prof. Yong Xie (The Hong Kong University of Science and Technology, Hong Kong PRC). QGY-TR50 cells were isolated and cultured as described (J. Zhou, S. C. Cheng, D. Luo, Y. Xie Biochem. Biophys. Res. Commun. 2001, 280, 1237-1242). Human nasopharyngeal carcinoma cells (SUNE1 and its cisplatin-resistant variant—CNE2) were derived from poorly differentiated NPC in Chinese patients and were generously provided by Dr. S. W. Tsao (The University of Hong Kong, Hong Kong PRC). Cell culture flasks and 96-well microtitre plates were from Nalge Nunc Int. Culture medium, other medium constituents and phosphate buffer saline (PBS) were obtained by Gibco BRL Rockville, Md., USA. Cell Proliferation kit I (MTT) was purchased from Roche. Mannheim, Germany.
(In general: Tetrazolium assays rely on reduction of a dye to a coloured formazan, in cell work by metabolically active cells.)

Series [2] is described as follows: Stability by UV-visible in presence of reduced glutathione. In kind it is physicochemical. The note with it: 6 mM GSH in DMSO/Tris buffer solution (1:9). As for the experimental part: Moreover, concomitant band broadening in spectrum of complex 1 was observed after 24 h. No significant spectral shift and formation of new absorption band were observed. […] Comparing with the spectra of complex 1, the decrease in Soret band intensity of complex 2b is less significant. The intensities are only found to decrease in 2% and 19% after 2 h and 24 h, respectively. Also, there is no significant spectral shift and formation of new absorption band were observed (FIG. 8).

A further series has as its system PARP. Nature of the series: Western blotting analysis, PARP. In kind it is cell-based, human. The note with it: HeLa, 2 μM, after the treatment. As to the method:
Cells were washed in cold phosphate-buffered saline (PBS) at 4° C. and lysed in a buffer containing 0.05 M Tis.HCl (pH 7.5), 0.25 M NaCl, 0.005 M EDTA, 0.05 M NaF, 1 mM DTT and 1% Triton. Cell lysates were collected and the protein concentration of cell lysates was measured using a Protein detection kit (Bio-Rad). Equal amount of proteins was resolved in a 12% SDS-PAGE gel and transferred onto nitrocellulose membranes. The membrane was blocked with a blocking solution (1×TBS, 0.1% Tween-20 with 5% non-fat dry milk) at room temperature for 1 h, and washed three times with washing buffer (1×TBS, 0.1% Tween-20) for 5 min each. The membrane was then incubated with primary antibody (Caspase 3, Bid, PARP and β-Actin respectively) for overnight at 4° C. The membrane was washed three times with washing buffer for 5 min each before incubation with the corresponding secondary antibody (horse anti-mouse IgG or goat anti-rabbit IgG). Membrane was washed again and signals were detected using an ECL detection kit (Amersham Pharmacia Biotech) followed by the exposure to X-ray films (Fujifilm).
After treatment with complex 1 for different time intervals, the expressions of caspase 3, Bid and PARP were detected by the Western blotting analysis. […] Moreover, treatment with complex 1 leads to a reduction in the level of un-cleaved Bid.
In general terms: A western blot detects proteins with antibodies after separation by electrophoresis.

The subject of series [3] is human hepatocellular cancinoma cells QGY-7703. In words: MTT cell viability assay, QGY-7703. In kind it is cell-based.
Excerpt: as §1

Series [4] has as its system different human liver carcinoma cells. Nature of the series: Cytotoxicity toward different human liver carcinoma cells. The note with it: treatment for 48 h. In kind it is cell-based.
Excerpt: as §1

The test system of series [5] is human hepatocellular carcinoma cells (HepG2). In words: MTT cell viability assay, HepG2. Format: cell-based.
Excerpt: as §1

Series [6] has as its system human cervical epitheloid carcinoma cells (HeLa). In words: MTT cell viability assay, HeLa. In kind it is cell-based.
Excerpt: as §1

Series [7] relates to human breast cancer cells (MCF-7). Nature of the series: MTT cell viability assay, MCF-7. In kind it is cell-based.
Excerpt: as §1

Where [8] appears, read: IC50 of cisplatin divided by IC50 of complex.

Broadly, the IC50 is the concentration at which inhibition is half-maximal. High values mean a need for much substance, low ones inhibition by little substance. With [Yb2(OEP)2](μ-OH)2 [Complex 1], the “cell morphology (type of cell death) under confocal microscopy” value in the series with HeLa cells is “both living and apoptotic cells were observed”. In the series on LC3, the “redistribution of GFP-LC3” value was “time-dependent increase in punctuated green fluorescence”. In addition, the “IC50 ratio cisplatin/complex, QGY-TR50” value in [1] (setting [8]) came to 60.3. The IC50 in series [1] (MTT, 37° C., 48 h, mean ± SD) is 540 nM; in series [3] (MTT, 37° C., 48 h, mean ± SD), 60 nM; in [4], 60 to 780 nM; in [5] (MTT, 37° C., 48 h, mean ± SD) it was 210 ± 10 nM; in [6] (MTT, 37° C., 48 h, mean ± SD of three experiments) it was 470 ± 300 nM; in [7] (MTT, 37° C., 48 h, mean ± SD), 550 nM. The “decrease in Soret band intensity, reduced glutathione, 2 h” value in series [2] (2 h) is 7%. In series [2] (24 h), the “decrease in Soret band intensity, reduced glutathione, 24 h” value is recorded as 52%. Besides, in the series on PARP, the “level of cleaved PARP (85 kDa)” value is reported as “gradual increase”. Also, in series [3] (setting [8]), the “IC50 ratio cisplatin/complex, QGY-7703” value was found to be 763. Also, in [3] (compared with cisplatin), the “times more effective than cisplatin in eradicating QGY-7703 human liver cancer cell line” value is recorded as 760 times. In series [5] (setting [8]), the “IC50 ratio cisplatin/complex, HepG2” value is 22.7. In series [6] (setting [8]), the “IC50 ratio cisplatin/complex, HeLa” value stood at 30.2. Moreover, in [7] (setting [8]), the “IC50 ratio cisplatin/complex, MCF-7” value is listed as 63.89. Besides, the “cytotoxic activity toward breast cancer cell line (MCF-7), times higher than that of cisplatin” value in series [7] (compared with cisplatin) is 60 times.
